From patent US10508077B2 (FORMA Therapeutics, Inc., priority 2015, dated 2019)

What was measured:
[1] = target: T1, Full length human recombinant HDAC8 protein (Homo sapiens, UniProt Q9BY41); assay: In vitro histone deacetylase assay: enzymatic HDAC8 assay, electrophoretic mobility shift; type: biochemical; details: substrate RHKK(Ac)-NH2, 1 nM enzyme, compounds listed under IC50 range headings
T1 construct: Full length human recombinant HDAC8 protein was expressed in baculoviral system; made in house
T1 sequence (Q9BY41 1-377): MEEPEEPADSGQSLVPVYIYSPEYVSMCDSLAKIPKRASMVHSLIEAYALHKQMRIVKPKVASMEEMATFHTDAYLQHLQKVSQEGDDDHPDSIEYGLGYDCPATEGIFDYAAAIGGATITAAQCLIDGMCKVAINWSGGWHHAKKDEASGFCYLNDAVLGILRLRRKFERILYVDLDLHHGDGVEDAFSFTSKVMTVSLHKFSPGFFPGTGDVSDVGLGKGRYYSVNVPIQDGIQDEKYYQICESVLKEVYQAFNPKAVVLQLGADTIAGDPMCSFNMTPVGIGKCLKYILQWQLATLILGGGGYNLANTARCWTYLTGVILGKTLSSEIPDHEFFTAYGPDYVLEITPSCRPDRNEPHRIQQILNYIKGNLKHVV
Method in brief: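 Readout was microfluidic mobility-shift separation of deacetylated product from fluorescent RHKK(Ac)-NH2 substrate (2 µM), after reaction with 1 nM recombinant full-length human HDAC8 at 25 °C, pH 7.5, stopped with SDS. Twelve 3-fold-spaced concentrations tested; product/sum ratios normalized to controls and fitted with a 4-parameter model for IC50.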

[2] = target: T2, Recombinant N-terminal GST tag full-length human HDAC8 (Homo sapiens, UniProt Q9BY41); assay: HDAC8 probe binding assay, time resolved fluorescence (TRF); details: fluorescein labeled pan-HDAC inhibitor probe, 16 hours incubation, compounds listed under IC50 range headings
T2 construct: Recombinant N-terminal GST tag full-length human HDAC8; purchased SignalChem H90-30G-1000; host or cells: Sf9 insect cells (baculovirus)
T2 sequence (Q9BY41 1-377): T1 sequence (Q9BY41 1-377)
Protocol: The HDAC8 probe binding assay was performed using a time resolved fluorescence (TRF) assay format. Recombinant N-terminal GST tag full-length human HDAC8 was expressed and purified from baculovirus in Sf9 insect cells (SignalChem, #H90-30G-1000), Each assay was performed in 1536 black well microplates (Corning, #3936) in a final volume of 4 μL in assay buffer containing 50 mM HEPES (pH 7.5), 50 mM KCl, 50 mM NaCl, 0.5 mM GSH (L-Glutathione reduced, Sigma #G4251), 0.03% BGG (0.22 μM filtered, Sigma, #G7516-25G), and 0.01% Triton X-100 (Sigma, #T9284-10L). 20 nL of 10-point, 3-fold serial dilution in DMSO was pre-dispensed into respective wells of 1536 assay plates for a final test concentration range of 25 μM to 1.3 nM respectively. The final concentration in the assay of HDAC8 and probe (a fluorescein labeled pan-HDAC inhibitor) was 2.5 nM and 1.5 nM respectively. 2 μL of 2× probe and 2× anti-GST Terbium (Cisbio, #61GSTXLB) was added to assay plates followed by 2 μL of 2× HDAC8. Plates were incubated for 16 hours at room temperature before time resolved fluorescence was read on the Envision (Excitation at 340 nm, and Emission at 485 nm and 535 nm, Perkin Elmer).
Data from HDAC8 Assays were reported as percent inhibition (inh) compared with control wells based on the following equation: % inh=1−((FLU−AveLow)/(AveHigh−AveLow)) where FLU=measured time resolved fluorescence. AveLow=average time resolved fluorescence of no enzyme control (n=32). AveHigh=average time resolved fluorescence of DMSO control (n=32). IC50 values were determined by curve fitting of the standard 4 parameter logistic fitting algorithm included in the Activity Base software package: IDBS XE Designer Model205. Data is fitted using the Levenburg Marquardt algorithm.

Structure (SMILES)	IC50 [1] [nM]	IC50 [2] [nM]
O=C(/C=C/c1ccccc1N1CC[C@H](c2ccccc2)C1=O)NO (single isomer, unassigned) [Example I-327]	< 1000	≤ 1000
O=C(/C=C/c1ccccc1N1CC[C@@H](c2ccccc2)C1=O)NO (single isomer, unassigned) [Example I-328]	< 1000	≤ 1000
O=C(/C=C/c1ccccc1NCc1ccccc1)NO [Example I-40]	< 1000	≤ 1000
O=C(/C=C/c1ccccc1NC(=O)c1cccc(C(F)(F)F)c1)NO [Example I-41, (E)-N-(2-(3-(hydroxyamino)-3-oxoprop-1-en-1-yl)phenyl)-3-(trifluoromethyl)benazmide]	< 1000	≤ 1000
CC(=O)Nc1cccc(CNc2ccccc2/C=C/C(=O)NO)c1 [Example I-43, (E)-3-(2-((3-acetamidobenzyl)amino)phenyl)-N-hydroxyacrylamide]	< 1000	1000 to 100000
N#Cc1cccc(C(=O)Nc2ccccc2/C=C/C(=O)NO)c1 [Example I-44, (E)-3-cyano-N-(2-(3-(hydroxyamino)-3-oxoprop-1-en-1-yl)phenyl)benzamide]	< 1000	≤ 1000
N#Cc1cccc(CNc2ccccc2/C=C/C(=O)NO)c1 [Example I-45, (E)-3-(2-((3-cyanobenzyl)amino)phenyl)-N-hydroxyacrylamide]	< 1000	1000 to 100000
O=C(/C=C/c1ccccc1NCc1cccc(CCCO)c1)NO [Example I-48, (E)-N-hydroxy-3-(2-((3-(3-hydroxypropyl)benzyl)amino)phenyl)acrylamide]	< 1000	1000 to 100000
O=C(/C=C/c1ccccc1NC(=O)c1cccc(CCCO)c1)NO [Example I-49, (E)-N-(2-(3-(hydroxyamino)-3-oxoprop-1-en-1-yl)phenyl)-3-(3-hydroxypropyl)benzamide]	< 1000	≤ 1000
CN(C(=O)c1cccc(C(F)(F)F)c1)c1ccccc1/C=C/C(=O)NO [Example I-54, (E)-N-(2-(3-(hydroxyamino)-3-oxoprop-1-en-1-yl)phenyl)-N-methyl-3-(trifluoromethyl)benzamide]	< 1000	≤ 1000
O=C(/C=C/c1ccccc1NC(=O)c1ccc(C(F)(F)F)cc1)NO [Example I-61, (E)-N-(2-(3-(hydroxyamino)-3-oxoprop-1-en-1-yl)phenyl)-4-(trifluoromethyl)benzamide]	< 1000	≤ 1000
O=C(/C=C/c1ccccc1NC(=O)c1ccc2[nH]ccc2c1)NO [Example I-62, (E)-N-(2-(3-(hydroxyamino)-3-oxoprop-1-en-1-yl)phenyl)-1H-indole-5-carboxamide]	< 1000	≤ 1000
O=C(/C=C/c1ccccc1NC(=O)C1CCc2ccccc2C1)NO (stereo not drawn) [Example I-65, (E)-N-(2-(3-(hydroxyamino)-3-oxoprop-1-en-1-yl)phenyl)-1,2,3,4-tetrahydronaphthalene-2-carboxamide]	< 1000	≤ 1000
Cc1ccc(CC(=O)Nc2ccccc2/C=C/C(=O)NO)cc1 [Example I-66, (E)-N-hydroxy-3-(2-(2-(p-tolyl)acetamido)phenyl)acrylamide]	< 1000	≤ 1000
CC(C)CCC(=O)Nc1ccccc1/C=C/C(=O)NO [Example I-67, (E)-N-(2-(3-(hydroxyamino)-3-oxoprop-1-en-1-yl)phenyl)-4-methylpentanamide]	< 1000	≤ 1000
O=C(/C=C/c1ccccc1NC(=O)CC1CCCC1)NO [Example I-68, (E)-3-(2-(2-cyclopentylacetamido)phenyl)-N-hydroxyacrylamide]	< 1000	≤ 1000
CC(C)C(=O)Nc1ccccc1/C=C/C(=O)NO [Example I-69, (E)-N-hydroxy-3-(2-isobutyramidophenyl)acrylamide]	< 1000	≤ 1000

Structure (SMILES)	IC50 [1] [nM]	IC50 [2] [nM]
O=C(/C=C/c1ccccc1NC(=O)c1ccc(OC(F)F)cc1)NO [Example I-70, (E)-4-(difluoromethxoy)-N-(2-(3-(hydroxyamino)-3-oxoprop-1-en-1-yl)phenyl)benzamide]	< 1000	≤ 1000
O=C(/C=C/c1ccccc1NC(=O)c1ccccc1Oc1ccccc1)NO [Example I-71, (E)-N-(2-(3-(hydroxyamino)-3-oxoprop-1-enyl)phenyl)-2-phenoxybenzamide]	< 1000	≤ 1000
O=C(/C=C/c1ccccc1NC(=O)c1ccc(-n2cccn2)cc1)NO [Example I-72, (E)-N-(2-(3-(hydroxyamino)-3-oxoprop-1-en-1-yl)phenyl)-4-(1H-pyrazol-1-yl)benzamide]	< 1000	≤ 1000
O=C(/C=C/c1ccccc1NC(=O)[C@H]1C[C@H]1c1ccccc1)NO [Example I-73, (1S,2R)-N-(2-((E)-3-(hydroxyamino)-3-oxoprop-1-en-1-yl)phenyl)-2-phenylcyclopropane-1-carboxamide]	< 1000	≤ 1000
O=C(/C=C/c1ccccc1NC(=O)c1csc(-c2cccnc2)n1)NO [Example I-75, (E)-N-(2-(3-(hydroxyamino)-3-oxoprop-1-en-1-yl)phenyl)-2-(pyridin-3-yl)thiazole-4-carboxamide]	< 1000	≤ 1000
O=C(/C=C/c1ccccc1NC(=O)c1cnc(-c2cccnc2)s1)NO [Example I-76, (E)-N-(2-(3-(hydroxyamino)-3-oxoprop-1-en-1-yl)phenyl)-2-(pyridin-3-yl)thiazole-5-carboxamide]	< 1000	≤ 1000
O=C(/C=C/c1ccccc1NC(=O)c1cc2ccccc2[nH]1)NO [Example I-77]	< 1000	≤ 1000
CCn1c(C(=O)Nc2ccccc2/C=C/C(=O)NO)cc2ccccc21 [Example I-79, (E)-1-ethyl-N-(2-(3-(hydroxyamino)-3-oxoprop-1-en-1-yl)phenyl)-1H-indole-2-carboxamide]	< 1000	≤ 1000
O=C(/C=C/c1ccccc1NC(=O)[C@H]1C[C@@H]1c1ccccc1)NO [Example I-83, (1S,2S)-N-(2-((E)-3-(hydroxyamino)-3-oxoprop-1-en-1-yl)phenyl)-2-phenylcyclopropane-1-carboxamide]	< 1000	≤ 1000
O=C(/C=C/c1ccccc1NC(=O)C1CCC2(CC1)CC2)NO [Example I-84, (E)-N-(2-(3-(hydroxyamino)-3-oxoprop-1-en-1-yl)phenyl)spiro[2.5]octane-6-carboxamide]	< 1000	≤ 1000
CS(=O)(=O)c1nc(C(=O)Nc2ccccc2/C=C/C(=O)NO)c2ccccn12 [Example I-85, (E)-N-(2-(3-(hydroxyamino)-3-oxoprop-1-en-1-yl)phenyl)-3-(methylsulfonyl)imidazo[1,5-a]pyridine-1-carboxamide]	< 1000	≤ 1000
O=C(/C=C/c1ccccc1NCc1ccccn1)NO [Example I-89]	< 1000	≤ 1000
O=C(/C=C/c1ccccc1NCc1nccs1)NO [Example I-91, (E)-N-hydroxy-3-(2-((thiazol-2-ylmethyl)amino)phenyl)acrylamide]	< 1000	≤ 1000
O=C(/C=C/c1ccccc1NCc1cccnc1)NO [Example I-93]	< 1000	≤ 1000
Cc1cc(CNc2ccccc2/C=C/C(=O)NO)n(C)n1 [Example I-94, (E)-3-(2-(((1,3-dimethyl-1H-pyrazol-5-yl)methyl)amino)phenyl)-N-hydroxyacrylamide]	< 1000	≤ 1000
CS(=O)(=O)c1ccc(CNc2ccccc2/C=C/C(=O)NO)cc1 [Example I-95, (E)-N-hydroxy-3-(2-((4-(methylsulfonyl)benzyl)amino)phenyl)acrylamide]	< 1000	≤ 1000
